# Literature values, collected in patent US20170306503A1, “SYNTHETIC ACID COMPOSITIONS ALTERNATIVES TO CONVENTIONAL ACIDS IN THE OIL AND GAS INDUSTRY” (FLUID ENERGY GROUP LTD, priority 2014, published 2017).
# Conditions: gas exposure, death in 2-3 minutes
smiles,measurement,value
"Cl [Hydrogen chloride gas, Hydrogen chloride]",level at which death can occur,1300-2000 PPM
